Here are results for two molecules from article PMC2063833 (The Journal of Cell Biology, 2006).

The experiment addresses T1, Ssy1p (Saccharomyces cerevisiae, UniProt Q03770).
T1 sequence (Q03770 1-852): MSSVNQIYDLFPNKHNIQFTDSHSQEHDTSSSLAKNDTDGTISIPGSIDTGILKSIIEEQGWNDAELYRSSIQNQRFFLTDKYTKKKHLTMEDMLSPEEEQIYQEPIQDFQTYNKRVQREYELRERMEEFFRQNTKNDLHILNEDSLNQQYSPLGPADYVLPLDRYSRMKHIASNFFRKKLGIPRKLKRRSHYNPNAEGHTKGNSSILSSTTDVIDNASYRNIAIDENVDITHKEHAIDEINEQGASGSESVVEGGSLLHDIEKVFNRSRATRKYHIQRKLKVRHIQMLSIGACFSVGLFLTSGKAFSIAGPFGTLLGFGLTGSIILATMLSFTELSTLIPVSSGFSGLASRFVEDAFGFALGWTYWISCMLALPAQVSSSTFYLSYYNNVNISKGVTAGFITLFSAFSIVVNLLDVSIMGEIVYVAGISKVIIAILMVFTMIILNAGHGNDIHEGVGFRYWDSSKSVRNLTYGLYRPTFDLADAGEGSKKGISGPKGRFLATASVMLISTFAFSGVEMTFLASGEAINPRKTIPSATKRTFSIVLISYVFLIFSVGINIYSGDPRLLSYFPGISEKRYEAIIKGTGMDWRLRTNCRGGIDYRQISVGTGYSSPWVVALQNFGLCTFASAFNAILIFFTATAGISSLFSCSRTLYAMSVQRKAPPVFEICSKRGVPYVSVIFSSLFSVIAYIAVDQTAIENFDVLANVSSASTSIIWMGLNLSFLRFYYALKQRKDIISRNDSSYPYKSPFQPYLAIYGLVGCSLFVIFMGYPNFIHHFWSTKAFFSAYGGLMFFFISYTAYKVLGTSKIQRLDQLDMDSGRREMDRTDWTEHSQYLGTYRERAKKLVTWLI
In words: Ssy1p signaling measured as Stp1p processing. The class given is cell-based. The note with it: for EC50: EC50 for sensing of extracellular amino acid, grown in SD.

Structures are written as SMILES.

For orientation: EC50 means the concentration that produces a half-maximal response. High values mean weaker potency, low ones greater potency. For the molecule `CC(C)C[C@H](N)C(=O)O` [Leu, leucine], the EC50 came to 13 µM (experiment 1, strain M5447 (ura3 gap1Δ), Leuc 0.5 μmol/g DW, mean of triplicate); 15 µM (experiment 5, strain M5568 (ura3 gap1Δ bap2Δ tat1Δ bap3Δ agp1::URA3), Leuc 1 μmol/g DW); 30 µM (experiment 9, strain M5446 (ura3 gap1Δ LEU4-fbr), Leuc 12 μmol/g DW).

For the molecule `CC(C)CCO` [isoamyl alcohol], the “Effect on EC50 of adding isoamyl alcohol” value (isoamyl alcohol at relevant concentrations, unpublished data) was “no significant effect”.
